This is an account of results in paper PMC7092479, “Antiviral activity of silymarin in comparison with baicalein against EV-A71” (BMC Complementary Medicine and Therapies, 2020).

Series [1] is described as follows: Cytotoxicity assay (MTS) in RD cells. As to conditions: human, CC50 (half maximal cytotoxic concentration), 24 h, MTS assay. As to the method:
(§1) CellTiter 96® AQueous One Solution Cell Proliferation MTS [3-(4,5-dimethylthiazol-2-yl)-5-(3-carboxymethoxyphenyl)-2-(4-sulfophenyl)-2H-tetrazolium] assay kit (Promega, Madison, WI, USA) was used to evaluate the cytotoxicity of the three flavonoids according to the manufacturer’s instruction. Briefly, RD or Vero cells were seeded overnight in 96 well plates with a density of 2 × 10^5 cells/mL. Cells were then treated with various concentrations of silymarin (6.25, 12.5, 25, 50,100 and 200 μg/mL), baicalein (1.68, 3.37, 6.75, 13.5, 27, 54 and 108, μg/mL) and baicalin (2.78, 5.57, 11.15, 22.31, 44.63 and 89.26 μg/mL) prepared in maintenance media. RD or Vero cells without test compounds served as a negative control. The plate was further incubated for 24 h at 37 °C. An aliquot of 20 μL of MTS solution was added to each well and the plate was incubated for 1 h at 37 °C. The absorbance was measured at 490 nm with an Infinite 200 Pro Multiplate Reader (Tecan, Männdedorf, Switzerland) (Supplementary Figure S1). The half-maximal cytotoxic concentration (CC50) and 10% cytotoxic concentration (CC10) for each flavonoid were determined using GraphPad Prism software, version 7 (GraphPad Software, Calif, USA).
In general terms: Formazan colour is commonly taken as a measure of viable cells.

Series [2] relates to RD cells. Put plainly: Cytotoxicity assay (MTS) in RD cells. As to the method:
as §1

Series [3] is described as follows: Cytotoxicity assay (MTS) in Vero cells. As to conditions: African green monkey, Vero cells. As to the method: as §1
The test system of the next series is Vero cells. Put plainly: Cytotoxicity assay (MTS) in Vero cells. The procedure: as §1
Series [4] deals with EV-A71. Briefly: microbe, parasite or virus in culture. The series is classed as cell-based, Enterovirus 71 (EV-A71) strain 41 (5865/SIN/000009). As to conditions: for inhibition at 54 µg/mL: EVA71, RD, read-out: Inhibition of EV-A71 viral infectivity, virucidal assay. The procedure: (§2) The plaque assay was performed using the method described by Tan et al. (2012) with minor modifications. Briefly, 6 well plates with 6 × 10^5 RD cells/mL were prepared and incubated to grow overnight at 37 °C. The supernatants collected from antiviral assays were serially diluted (10-folds) and the cell monolayer was infected with each dilution. The plates were incubated at 37 °C for 1 h. After removal of the inoculum, 1.5–2 mL of 0.9% of high viscosity carboxy methyl cellulose (CMC) (Sigma Aldrich, MO, USA) with 2% FBS in DMEM (overlay media) were added to each well. After incubation for 3 days, the overlaid media was removed. The cells were washed three times with phosphate buffered saline (PBS), fixed with 3.7% formaldehyde and stained with 0.5% crystal violet. The plaques were counted manually against a white background and pictures were taken using the CTL Immunospot® S6 Versa (Cleveland, OH, USA). All experiments were performed as three independent replicates.
(§3) RNA extractions were performed using the QIAamp ViralRNA mini kit (Qiagen, Hilden, Germany) according to the manufacturer’s instructions. TaqMan® Fast virus 1-step master mix (ABI, Carlsbad, Calif, USA) was used to carry out qRT-PCR in the CFX96 TouchTM Real-Time PCR Detection System (Bio-Rad, Calif, USA). The cDNA synthesis was carried out by reverse transcription for 5 min at 50 °C and subsequently amplified for 40 cycles at 95 °C for 3 s, 60 °C for 30 s. A standard graph was plotted using serial dilutions of the standard viral stock. The threshold cycle value (Cq) was calculated using the default setting of the machine. All experiments were performed in triplicates.
RD cells (2 × 10^4/well) were grown overnight in wells of a 96 well plate. The virus was pre-treated with each of the flavonoids for 1 h at MOI of 1 (pfu/ml = 2 × 10^4/0.1 mL). Cells were infected with the pre-treated virus-flavonoid-mixture. The inoculum was allowed to incubate with the RD cells at 37 ° for 1 h. After 1 h, the inoculum was removed, cells were washed with PBS and maintenance media was replaced. After 24 h, the supernatant was collected and infectious viral titers were quantified using the plaque assay. RNA copy number was determined by qRT-PCR [21] [Supplementary Figure S2(a)].

Series [5] deals with EV-A71. Put plainly: Time course assay for virucidal activity. The series is classed as cell-based, Enterovirus 71 (EV-A71) strain 41 (5865/SIN/000009). As to conditions: 54 μg/mL, 60 min co-incubation with EV-A71 at 37 °C, plaque assay. The procedure: as §2, with “After removal of the inoculum, 1.5–2 mL of 0.9% of high viscosity carboxy methyl cellulose (CMC) (Sigma Aldrich, MO, USA) with 2% FBS in DMEM (overlay media) were added to each well.” left out, “replicates. RD cells (2 × 10^4/well) were grown overnight in wells of a 96 well plate. […] Cells were infected with the pre-treated virus-flavonoid-mixture and allowed to incubate with the RD cells at 37 °C for 1 h. After 1 h, the inoculum was removed, cells were washed with PBS and maintenance media was added. After 24 h, the supernatant was collected and infectious viral titers were quantified using the plaque assay.” for “replicates.”

Series [6] deals with EV-A71. Briefly: Cell protection assay (RD cells pre-treated). The series is classed as cell-based, Enterovirus 71 (EV-A71) strain 41 (5865/SIN/000009). As to conditions: 54 μg/mL; for inhibition at 54 µg/mL: Enterovirus A, EVA71, RD, read-out: Inhibition of EV-A71 viral infectivity, cell protection assay. As to the method:
as §2, §3
RD cells (2 × 10^4/well) were seeded overnight in each well within a 96 well plate. Cells were treated with different concentrations of a flavonoid for 1 h at 37 °C. After incubation, flavonoid containing media was removed and cells were washed with PBS. […] The supernatant was collected after 24 h and the infectious viral titers were quantified using the plaque assay. RNA copy number was determined using qRT-PCR [21] […]

For series [7], the system named is EV-A71. Briefly: Post-infection assay. The series is classed as cell-based, Enterovirus 71 (EV-A71) strain 41 (5865/SIN/000009). As to conditions: added 1 h after RD cells were infected, data not shown. The procedure: as §2, with “All experiments were performed as three independent replicates.” left out
RNA extractions were performed using the QIAamp ViralRNA mini kit (Qiagen, Hilden, Germany) according to the manufacturer’s instructions. […] The threshold cycle value (Cq) was calculated using the default setting of the machine. […]
RD cells (2 × 10^4/well) were grown overnight in wells of a 96 well plate. […] After 24 h, the supernatant was collected and infectious viral titers were quantified using the plaque assay. RNA copy number was determined using qRT-PCR [21] […]

Series [8] relates to EV-A71. Briefly: microbe, parasite or virus in culture. The following applies: for inhibition at 54 µg/mL: EVA71, 54 μg/mL, read-out: Inhibition of EV-A71 viral infectivity, comprehensive assay. The series is classed as cell-based, Enterovirus 71 (EV-A71) strain 41 (5865/SIN/000009). As to the method:
as §2, §3
RD cells (2 × 10^4/well) were grown overnight in wells of a 96 well plate. A monolayer of RD cells was pre-treated with various concentrations of a flavonoid for 1 h and incubated at 37 °C. Simultaneously, the virus at MOI of 1 (pfu/ml = 2 × 10^4/0.1 mL) was pre-treated with the same concentrations of the flavonoid for 1 h at 37 °C. After incubation, flavonoid containing media was removed and the RD cells were washed with PBS. The flavonoid-treated virus was added to the pre-treated RD cells for 1 h at 37 °C. The inoculum was removed, RD cells were washed with PBS and replaced with the maintenance media (DMEM supplemented with 2% FBS). After 24 h, the supernatant was collected and infectious viral titers were quantified using the plaque assay. RNA copy number was determined using qRT-PCR [21] [Supplementary Figure S2(e)].

Series [9] relates to EV-A71. More on the design: method as in Zhang et al. (2014) [27]. The following applies: cells treated with 30 μM prior to EV-A71 infection; ref Zhang et al. (2014) [27]; cited from earlier work.
Series [10] deals with RD cells. Set-up: method as in Li et al. (2015) [16]. The following applies: ref Li et al. (2015) [16]; cited from earlier work.

Values after ≈ are worked out from the molar mass of the structure shown. Like-named read-outs stand apart in the source and are kept apart here.

Usually CC50 stands for the concentration at which the toxic effect on the cells reaches its halfway point. What is called inhibition is the share of the control response that was lost under treatment. The IC50 is the concentration that inhibits the measured activity by half. As for `O=c1cc(-c2ccccc2)oc2cc(O)c(O)c(O)c12` [Baicalein], the CC50 at 24 h is 421.5 ± 3.23 µg/mL (≈ 1560 µM) in series [1] (extrapolated value, above the tested concentration of 108 μg/mL) and 828.7 ± 0.93 µg/mL (≈ 3070 µM) in series [3]. The “CC10 (10% cytotoxic concentration)” value with RD cells [2] (24 h, MTS assay) came to 90.93 ± 3.94 µg/mL (≈ 336 µM); in the series with RD cells [2] (24 h, MTS assay, listed as baicalein), 90.93 µg/mL (≈ 336 µM). For the same compound, the “Concentration up to which no significant cytotoxic effects were observed” value in the series on RD cells [2] (24 h incubation) was ≤ 54 µg/mL. For the same compound, in the series with Vero cells (Vero cells, 24 h, MTS assay), the CC10 stood at 148.9 ± 0.25 µg/mL (≈ 551 µM). Also, the “Virucidal Assay SI (CC50/IC50)” value in the series on EV-A71 [4] was 13.64. In addition, in the series on EV-A71 [4] (54 μg/mL, plaque assay), the “Inhibition of EV-A71 viral infectivity, virucidal assay” value is recorded as 65.0%. For the same compound, the inhibition at 54 µg/mL in the series on EV-A71 [4] (Enterovirus A, 54 μg/mL, plaque assay) amounted to 64%; in the series with EV-A71 [4] (Enterovirus A, 54 μg/mL, qRT-PCR (RNA copy number)), 78.8%; with EV-A71 [6] (plaque assay), 2.2%; in the series with EV-A71 [6] (qRT-PCR), 0%; with EV-A71 [8] (Enterovirus A, plaque assay) it was 89.4%; in the series with EV-A71 [8] (Enterovirus A, qRT-PCR (RNA copy number)), 83%. The IC50 was 30.9 ± 5.5 µg/mL (≈ 114 µM) with EV-A71 [4] (Enterovirus A, EVA71, plaque assay, RD cells, virus pre-treated 1 h, MOI 1, read-out: Virucidal Assay IC50); 2.27 ± 4.93 µg/mL (≈ 8.4 µM) in the series on EV-A71 [8] (Enterovirus A, EVA71, plaque assay, RD cells and virus both pre-treated 1 h, read-out: Comprehensive Assay IC50). Further, in the series with EV-A71 [5], the “Virucidal effects against EV-A71 (time course)” value was 60%. In addition, the “Inhibition of EV-A71 viral infectivity, cell protection assay” value in the series on EV-A71 [6] (plaque assay) is reported as “no inhibition”. Also, the “Inhibition of EV-A71 post-infection” value in the series with EV-A71 [7] is “non-inhibitory”. Also, the “Comprehensive Assay SI (CC50/IC50)” value with EV-A71 [8] turned out to be 185.6. The “Effect as a prophylactic agent against EV-A71” value with EV-A71 [9] is reported as “non-effective”.

On to `O=C(O)[C@H]1O[C@@H](Oc2cc3oc(-c4ccccc4)cc(=O)c3c(O)c2O)[C@H](O)[C@@H](O)[C@@H]1O` [Baicalin, reference compound], for which the CC50 at 24 h was 42.2 µg/mL (≈ 94.5 µM) in [1] and 30.47 ± 0.06 µg/mL (≈ 68.3 µM) in series [3]. Besides, the “CC10 (10% cytotoxic concentration)” value in the series on RD cells [2] (24 h, MTS assay) amounted to 5.46 ± 5.02 µg/mL (≈ 12.2 µM); in the series with RD cells [2] (24 h, MTS assay, listed as baicalin) it was 5.46 µg/mL (≈ 12.2 µM). Besides, in the series with RD cells [2] (24 h, MTS assay), the “CC50 (half maximal cytotoxic concentration)” value came out at 42.21 ± 4.15 µg/mL (≈ 94.6 µM). Also, the CC10 with Vero cells (Vero cells, 24 h, MTS assay) is 1.718 ± 0.16 µg/mL (≈ 3.85 µM). Moreover, the CC50 in the series with RD cells [10] was 823.53 µg/mL (≈ 1840 µM).

On to Silymarin, for which, in the series with Vero cells, the CC10 worked out at 314.2 ± 0.06 µg/mL, the CC50 worked out at 753 ± 0.17 µg/mL and the “Concentration up to which no significant cytotoxicity was shown” value is ≤ 200 µg/mL. Besides, in the series on EV-A71 [4], the “Virucidal Assay SI (CC50/IC50)” value worked out at 10.53.
